Assay results reported in patent publication US5576433A, “Fluorescent calcium indicators targeted to specific intracellular environments” (priority 1994, dated 1996).
Where two headings read alike, the source gives them in different places.

Key:
[1] = read-out: apparent Kd for EGTA (assumed), cited from earlier work
[2] = Spectral properties (absorbance and fluorescence with and without calcium); format: physicochemical
[3] = Calcium Kd of indicator in solution (Table 1); format: binding
Description: Calcium concentration was varied by adjusting ratio of CaEGTA/EGTA, so that free calcium varied from less than 1 nM to 1 mM. During the titration, temperature was held constant at 37° C. by a circulating water bath and Mg^++ levels were held at a fixed concentration of 1 mM. The excitation spectra were recorded between 300 and 400 nm by a Photon Technology Intl. Alpha Scan fluorometer where the excitation band width was set 6 nm and the emission was collected at 485 nm with 4 nm band width. […] 1M K2 CaEGTA was added directly to the solution to incrementally increase free calcium.
Calcium concentration was varied by adjusting ratio of CaEGTA/EGTA so that free calcium varied from less than 1 nM to 1 mM. During the titration, temperature was held constant at 37° C. by a circulating water bath and Mg++ levels were held at a fixed concentration of 1 mM. The excitation spectra were recorded between 300 and 400 nm by a Photon Technology Intl. Alpha Scan fluorometer where the excitation band width was set 6 nm and the emission was collected at 485 nm with 4 nm band width. […] 1M K2 CaEGTA was added directly to the solution to incrementally increase free calcium.
^c 100 mM KCl, 10 mM MOPS, pH 7.3, 20° C.

[4] = Magnesium Kd of indicator (Table 1); format: binding
Description: (§1) The excitation spectrum was recorded of 1 μM FFP18 in 2.5 ml of 130 mM KCl, 20 mM NaCl, 1 mM EGTA, 10 mM MOPS, pH 7.05 at 37° C. Then 25 μl of the solution was replaced with 25 μl of a solution containing 1 μM of that same dye, 111.2 mM MgC12, 12.2 mM EGTA, 10 mM MOPS, pH 7.05. This exchange yielded 1 mM free Mg^2+ 0.2 and 5 mM free Mg^2+ were obtained by successively exchanging 25.25 and 76.53 μl of the original solution with that of the latter solution containing the high concentration of Mg^2+. Emission was collected at 490 nm for fura-PE3 and 485 nm for FFP18, 4 nm band pass, and excitation 5 nm band pass.
as §1, with “1 μM PE3 in 2.5” for “1 μM FFP18 in 2.5”, “1 μM PE3, 111.2 mM” for “1 μM of that same dye, 111.2 mM”, “mM free Mg^2+. The 2 and 5” for “mM free Mg^2+ 0.2 and 5”, “free Mg^2+ concentrations were obtained” for “free Mg^2+ were obtained”

[5] = pH sensitivity of the calcium dissociation constant (Table 2); format: binding; details: 100 mM KCl, 10 mM MOPS
Description: The calcium dissociation constant of BAPTA-like calcium chelators and indicators is strongly affected by electron withdrawing effects of substituents on the BAPTA aromatic rings. The zwitterionic indicators described herein each contain an ionizable amine. The difference in electron withdrawing effects of the ionized and unionized amine could potentially communicate to BAPTA, creating a situation were the calcium affinity varied with pH. The design of PE3 and FFP18 was aimed at minimizing or eliminating this possibility by insulating the ionizable amine from the BAPTA ring with an aliphatic spacer containing one or more carbons. To test the effectiveness of this design, the calcium Kd of PE3 and FFP18 was measured at different pH values and compared to the values obtained for fura-2. […] Thus, the aim of the test was to determine whether the piperazine amino group gives the indicator increased pH sensitivity.
On page 36 of U.S. Pat. No. 4,603,209 (Tsien, et. al., 1987 Aug. 25), R2 is claimed as H, CH3, F, Cl, Br and […]. The R2 of PE3 and FFP18 is none of these claimed in that patent.

322 T lymphoma cells [6] = assay: Leakage of indicator from loaded cells / drift of apparent baseline calcium; format: cell-based; details: for apparent baseline intracellular calcium / dye leakage (in words): cells loaded with AM ester 1 hour, HBSS with 1% fetal bovine serum
Description: The T cell lymphoma cell line was loaded with 1 mM fura-2/AM or 1 mM PE3/AM for 30 minutes. Afterwards, an aliquot of dye loaded cells were placed in a cuvette and the fluorescence at 360 nm was recorded. Then, 5 mM Ni^2+ was added to quench any indicator that was outside the cells. The remainder of the loaded cell suspension was incubated for 1 hour at 37° C. Then a second aliquot was removed placed in a cuvette together with 5 mM Ni^2+ and fluorescence recorded. The difference in fluorescence of Ni^2+ treated cells between the 0 hour time point and the one hour time point represents indicator that leaked out of the cells into the extracellular medium over the 1 hour incubation period.
A quantity of 322 T-lymphoma cells were loaded with either 1 mM fura-2/AM or 1 mM PE3/AM for 1 hour, washed and resuspended in HBSS containing 1% fetal bovine serum. An aliquot of the loaded cell suspension was then placed in the cuvette of an Alpha Scan fluorometer and the fluorescence signal was recorded over time, as the cells were alternately excited at 340 nm and 380 nm. Calcium concentration was calculated from the 350/385 nm fluorescence ratio as described by Tsien, et al.(1985).
The T cell lymphoma cell line was loaded with 1 mM fura-2/AM or 1 nM PE3/AM as for Example 3. Afterwards, an aliquot of dye loaded cells were placed in a cuvette and the fluorescense at 360 nm was recorded. Then 5 nM Ni^2+ was added to quench any indicator that was outside the cells. The remainder of the loaded cell suspension was incubated for 1 hour at 37° C. Then a second aliquot was removed, placed in a cuvette together with 5 mM Ni^2+ and fluorescense recorded. The difference in fluorescense of Ni^2+ treated cells between 0 hour time point and the one hour time point represents indicator that leaked out of the cells into the extracellular medium over the 1 hour incubation period.

322 T lymphoma cells [7] = assay: Response of PE3 loaded cells to changes in intracellular calcium
PTK1 cells = details: cited from earlier work
[8] = tested on: intracellular [Ca^2+ ] transients; assay: Recorded versus calculated calcium influx; format: cell-based; details: 4 cells
Description: FIG. 13 and FIG. 13A show the relationship between the intracellular [Ca^2+ ] transients over time for fura-2 and FFP18. In Example 7, the relationship between the intracellular [Ca^2+ ] transients reported by FFP18 or fura-2 and calculated [Ca^2+ ] transients representing calcium influx are shown as a function of time. The amount of Ca^2+ entering the cell across the membrane was calculated by integrating the inward current signal and converting the charge to moles of Ca^2+ per cell volume. This [Ca^2+ ] was divided by the average buffering capacity of these cells. […] The [Ca^2+ ] transients reported by the calcium indicators are shown by the more noisy traces.
The amount of Ca^2+ entering the cell across the membrane was calculated by integrating the inward current signal and converting the charge to moles of Ca^2+ per cell volume. This [Ca^2+ ] was divided by the average buffering capacity of these cells. […]
In 4 cells where the [Ca^2+ ] transient was recorded using fura-2, the magnitude of the recorded and calculated increases in [Ca^2+ ] were similar. The ratio of calcium influx measured using fura-2 to the calcium influx calculated from the integral of the current at the 200 msec time point gives a value of 0.9+/-0.05 [nM (recorded)/nM(calculated)].

Tradescantia cells = details: within a short time; Hepler and Poenie, unpublished; cited from earlier work
muscle calcium = details: Hollingsworth and Baylor; cited from earlier work
[9] = tested on: calcium transient during mitosis; details: Kao et al.; cited from earlier work
[10] = tested on: leakage and compartmentalization of fura-2; details: cited from earlier work
[11] = pH 6.9, 20° C., read-out: calcium Kd at pH 6.9
[12] = pH 7.3, 20° C., read-out: calcium Kd at pH 7.3

O=C(O)CN(CCOCCOCCN(CC(=O)O)CC(=O)O)CC(=O)O [EGTA, ethylene glycol bis(beta-aminoethyl ether)N,N,N'N'tetraacetic acid]
Kd ([1]; pH 6.9, 20° C.): 0.594 µM
Kd ([1]; pH 7, 20° C.): 0.0954 µM

O=C(O)CN1CCN(C(=O)CCc2ccc(N(CC(=O)O)CC(=O)O)c(OCCOc3cc4cc(-c5ncc(C(=O)O)o5)oc4cc3N(CC(=O)O)CC(=O)O)c2)CC1 [PE3]
Fluorescence Quantum Efficiency, Ca bound ([2]; Ca bound): 0.27
Peak Absorption Wavelength, Ca bound ([2]; Ca bound): 335 nm
Peak Emission Wavelength, Ca bound ([2]; Ca bound): 495 nm
Fluorescence Quantum Efficiency, Free anion ([2]; Free anion): .043
Peak Absorption Wavelength, Free anion ([2]; Free anion): 364 nm
Peak Emission Wavelength, Free anion ([2]; Free anion): 508 nm
absorbance, excitation, emission and quantum efficiency (in words) ([2]; presence and absence of calcium): all typical of fura-2
calcium binding affinity compared with fura-2 (in words) [3]: somewhat weaker than that of fura-2
Kd ([3]; 20° C., 100 mM KCl, 10 mM MOPS, pH 7.3 (footnote c)): 0.204 µM
Kd ([3]; 37° C., 130 mM KCl, 20 mM NaCl, 1 mM free MgCl2, MOPS, pH 7.05 (footnote a)): 0.209 µM
Kd ([4]; 20° C.): 4300 µM
Kd ([4]; 37° C.): 4000 µM
Kd [5, 11]: 0.269 ± 0.003 µM
Kd [5, 12]: 0.204 ± 0.004 µM
leakage and compartmentalization (in words) (322 T lymphoma cells [6]): resists leakage and compartmentalization
apparent baseline intracellular calcium / dye leakage (in words) (322 T lymphoma cells [6]): small change in baseline intracellular calcium levels reflects the lower leakage rate out of the cell
fluorescence response at 340 nm to increase in calcium (322 T lymphoma cells [7]; after Concanavalin A): fluorescense at 340 nm increases
fluorescence response at 380 nm to increase in calcium (322 T lymphoma cells [7]; after Concanavalin A): fluorescense at 380 nm decreases
fluorescence response at 340 nm and 380 nm (322 T lymphoma cells [7]; after ionomycin): even greater response of the indicator at 340 nm and 380 nm
fluorescence after reducing free calcium with EGTA (322 T lymphoma cells [7]; digitonin lysed, EGTA added): fluorescense at 380 nm now becomes much brighter while the fluorescense at 340 becomes dim

CC(=O)OCOC(=O)CN(CC(=O)OCOC(C)=O)c1ccc(C)cc1OCCOc1cc2cc(-c3ncc(C(=O)OCOC(C)=O)o3)oc2cc1N(CC(=O)OCOC(C)=O)CC(=O)OCOC(C)=O [fura-2/AM]
loading in cells (in words) (PTK1 cells): consistent failure

Cc1ccc(N(CC(=O)O)CC(=O)O)c(OCCOc2cc3cc(-c4ncc(C(=O)O)o4)oc3cc2N(CC(=O)O)CC(=O)O)c1 [fura-2]
Kd [5, 11]: 0.216 ± 0.004 µM
Kd [5, 12]: 0.161 ± 0.002 µM
apparent baseline intracellular calcium / dye leakage (in words) (322 T lymphoma cells [6]): continuous increase in apparent intracellular calcium levels
magnitude of recorded versus calculated increase in [Ca^2+ ] (in words) [8]: similar
ratio of calcium influx recorded by indicator to calcium influx calculated ([8]; calculated from integral of the current at the 200 msec time point (time point stated for fura-2)): 0.9+/-0.05 nM (recorded)/nM(calculated)
transfer of cytosolic indicator to vacuole (in words) (Tradescantia cells): virtually all of the cytosolic indicator was transferred to the vacuole
ability to follow rapid changes in muscle calcium (muscle calcium): not fast enough to follow rapid changes in muscle calcium and was unable to track calcium levels at their peak
detection of calcium transient during mitosis [9]: seldom seen

CCCN(CCC)S(=O)(=O)c1ccc(C(=O)O)cc1 [probenecid]
effect on leakage and compartmentalization of fura-2 [10]: help reduce leakage and compartmentalization

Cc1ccc(N(CC(=O)O)CC(=O)O)c(OCCOc2cc(-c3c4ccc(=[N+](C)C)cc-4oc4cc(N(C)C)ccc34)ccc2N(CC(=O)O)CC(=O)O)c1 [rhod-2]
transfer of cytosolic indicator to vacuole (in words) (Tradescantia cells): differed in this respect

O=C1C(CC[S+]([O-])c2ccccc2)C(=O)N(c2ccccc2)N1c1ccccc1 (stereo not shown) [sulfinpyrazone]
effect on leakage and compartmentalization of fura-2 [10]: help reduce leakage and compartmentalization
